Data reported in patent publication US12043632B2, “6-heteroaryloxy benzimidazoles and azabenzimidazoles as JAK2 inhibitors” (Ajax Therapeutics, Inc., priority 2020, dated 2024).

The compounds below were run against T1, JAK2 (JH1domain-catalytic, Y1007F,Y1008F) kinase (Homo sapiens, UniProt O60674, Y1007F/Y1008F) (assay: JAK2 JH1 Domain Binding Assay). Details: qPCR readout.
T1 construct: JAK2 (JH1domain-catalytic, Y1007F,Y1008F) kinase was expressed as N-terminal fusion; made in house; host or cells: transiently transfected HEK293 cells
T1 sequence (O60674 849-1124 Y1007F/Y1008F limits assumed): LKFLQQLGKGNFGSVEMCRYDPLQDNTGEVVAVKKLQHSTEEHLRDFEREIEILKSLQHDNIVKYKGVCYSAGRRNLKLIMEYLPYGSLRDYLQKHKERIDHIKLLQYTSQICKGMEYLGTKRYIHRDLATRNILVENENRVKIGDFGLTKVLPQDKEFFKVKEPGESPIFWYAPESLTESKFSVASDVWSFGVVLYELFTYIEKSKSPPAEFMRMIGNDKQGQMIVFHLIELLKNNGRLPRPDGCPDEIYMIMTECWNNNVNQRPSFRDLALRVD
In the case of `COCCOc1cn2ncc(Oc3cnc4nc(Nc5cc(C(F)(F)F)cn(C)c5=O)n(C)c4c3C#N)c2cn1` [Example I-367, 6-((6-(2-methoxyethoxy)pyrazolo[1,5-a]pyrazin-3-yl)oxy)-1-methyl-2-((1-methyl-2-oxo-5-(trifluoromethyl)-1,2-dihydropyridin-3-yl)amino)-1H-imidazo[4,5-b]pyridine-7-carbonitrile], the Kd is reported as < 0.01 µM.
For `Cn1c(Nc2cc(C(=O)NCCN3CCOCC3)cc(C(F)(F)F)c2)nc2ncc(Oc3cnn4ccccc34)c(Cl)c21` [Example I-145, 3-((7-chloro-1-methyl-6-(pyrazolo[1,5-a]pyridin-3-yloxy)-1H-imidazo[4,5-b]pyridin-2-yl)amino)-N-(2-morpholinoethyl)-5-(trifluoromethyl)benzamide], the Kd was 0.01 to 0.05 µM.
With `Cn1c(Nc2cc(C(C)(C)C#N)n([C@H]3CCOC3)n2)nc2ncc(Oc3cnc4ccnn4c3)c(Cl)c21` [Example I-17, (S)-2-(3-((7-chloro-1-methyl-6-(pyrazolo[1,5-a]pyrimidin-6-yloxy)-1H-imidazo[4,5-b]pyridin-2-yl)amino)-1-(tetrahydrofuran-3-yl)-1H-pyrazol-5-yl)-2-methylpropanenitrile] the Kd was 0.01 to 0.05 µM.
For `CNc1nccn2ncc(Oc3cnc4nc(Nc5cc(CN6CC[C@H](OC)C6)cc(C(F)(F)F)c5)n(C)c4c3Cl)c12` [Example I-249, (S)-7-chloro-N-(3-((3-methoxypyrrolidin-1-yl)methyl)-5-(trifluoromethyl)phenyl)-1-methyl-6-((4-(methylamino)pyrazolo[1,5-a]pyrazin-3-yl)oxy)-1H-imidazo[4,5-b]pyridin-2-amine], the Kd was 0.01 to 0.05 µM.
For `CN1CCC[C@H]1c1cc(Nc2nc3ncc(Oc4cnn5ccncc45)c(Cl)c3n2C)cc(C(F)(F)F)c1` (single isomer, unassigned) [Example I-270-b], the Kd was < 0.01 µM.
With `Cn1c(Nc2cc(C(C)(C)C)n(C3CC4(COC4)C3)n2)nc2ncc(Oc3cnn4ccncc34)c(C(F)F)c21` [Example I-53, N-(5-(tert-butyl)-1-(2-oxaspiro[3.3]heptan-6-yl)-1H-pyrazol-3-yl)-7-(difluoromethyl)-1-methyl-6-(pyrazolo[1,5-a]pyrazin-3-yloxy)-1H-imidazo[4,5-b]pyridin-2-amine] the Kd was < 0.01 µM.
With `COCc1n[nH]c2ncc(Oc3cnc4nc(Nc5cc6n(n5)CCCC6(F)F)n(C)c4c3C#N)cc12` [Example I-399, 2-((4,4-difluoro-4,5,6,7-tetrahydropyrazolo[1,5-a]pyridin-2-yl)amino)-6-((3-(methoxymethyl)-1H-pyrazolo[3,4-b]pyridin-5-yl)oxy)-1-methyl-1H-imidazo[4,5-b]pyridine-7-carbonitrile] the Kd was < 0.01 µM.
Work on `Cn1c(=O)c(Nc2nc3ncc(Oc4cnn5ccncc45)c(Cl)c3n2C)cn(C2CC2)c1=O` [Example I-165, 5-((7-chloro-1-methyl-6-(pyrazolo[1,5-a]pyrazin-3-yloxy)-1H-imidazo[4,5-b]pyridin-2-yl)amino)-1-cyclopropyl-3-methylpyrimidine-2,4(1H,3H)-dione] yielded a Kd of 1 to 5 µM.
For `COCCOc1cn2ncc(Oc3cnc4nc(Nc5cc(C6CC6)cn(C)c5=O)n(C)c4c3Cl)c2cn1` [Example I-375, 3-((7-chloro-6-((6-(2-methoxyethoxy)pyrazolo[1,5-a]pyrazin-3-yl)oxy)-1-methyl-1H-imidazo[4,5-b]pyridin-2-yl)amino)-5-cyclopropyl-1-methylpyridin-2(1H)-one], the Kd was < 0.01 µM.
For `Cn1nc(C2CC2)cc(Nc2nc3ncc(Oc4cnn5ccccc45)c(Cl)c3n2C)c1=O` [Example I-116, 4-((7-chloro-1-methyl-6-(pyrazolo[1,5-a]pyridin-3-yloxy)-1H-imidazo[4,5-b]pyridin-2-yl)amino)-6-cyclopropyl-2-methylpyridazin-3(2H)-one], the Kd was < 0.01 µM.
With `CNc1cn2ncc(Oc3cnc4nc(Nc5cc(C(F)(F)F)cn(C)c5=O)n(C)c4c3C#N)c2c(C)n1` [Example I-396, 1-methyl-2-((1-methyl-2-oxo-5-(trifluoromethyl)-1,2-dihydropyridin-3-yl)amino)-6-((4-methyl-6-(methylamino)pyrazolo[1,5-a]pyrazin-3-yl)oxy)-1H-imidazo[4,5-b]pyridine-7-carbonitrile] the Kd was 0.01 to 0.05 µM.
In the case of `Cc1cn(-c2cc(Nc3nc4ncc(Oc5cnn6ccncc56)c(Cl)c4n3C)cc(C(F)(F)F)c2)cn1` [Example I-180, 7-chloro-1-methyl-N-(3-(4-methyl-1H-imidazol-1-yl)-5-(trifluoromethyl)phenyl)-6-(pyrazolo[1,5-a]pyrazin-3-yloxy)-1H-imidazo[4,5-b]pyridin-2-amine], the Kd is reported as < 0.01 µM.
`CN1CCN(CCn2cc(C3CC3)cc(Nc3nc4ncc(Oc5cnn6ccccc56)c(Cl)c4n3C)c2=O)CC1` [Example I-102, 3-((7-chloro-1-methyl-6-(pyrazolo[1,5-a]pyridin-3-yloxy)-1H-imidazo[4,5-b]pyridin-2-yl)amino)-5-cyclopropyl-1-(2-(4-methylpiperazin-1-yl)ethyl)pyridin-2(1H)-one] was tested, and the Kd was < 0.01 µM.
Work on `COc1c(Oc2cnn3ccccc23)cnc2nc(Nc3cc(C4CC4)cn([C@H]4CC[C@H]4O)c3=O)n(C)c12` (single isomer, unassigned) [Example I-131-b] yielded a Kd of 0.01 to 0.05 µM.
With `COCc1c[nH]c2ncc(Oc3cnc4nc(Nc5cc(C(C)(C)C)n([C@H]6CCOC6)n5)n(C)c4c3)cc12` [Example I-12] the Kd was < 0.01 µM.
For `CNc1nccn2ncc(Oc3cnc4nc(Nc5cc(-n6cnc(C)c6)cc(C(F)(F)F)c5)n(C)c4c3Cl)c12` [Example I-219, 7-chloro-1-methyl-N-(3-(4-methyl-1H-imidazol-1-yl)-5-(trifluoromethyl)phenyl)-6-((4-(methylamino)pyrazolo[1,5-a]pyrazin-3-yl)oxy)-1H-imidazo[4,5-b]pyridin-2-amine], the Kd was 0.01 to 0.05 µM.
For `CNc1nccn2ncc(Oc3cnc4nc(Nc5cc(OC6CN(C)C6)cc(C(F)(F)F)c5)n(C)c4c3Cl)c12` [Example I-259, 7-chloro-1-methyl-6-((4-(methylamino)pyrazolo[1,5-a]pyrazin-3-yl)oxy)-N-(3-((1-methylazetidin-3-yl)oxy)-5-(trifluoromethyl)phenyl)-1H-imidazo[4,5-b]pyridin-2-amine], the Kd was 0.01 to 0.05 µM.
With `CNc1nccn2ncc(Oc3cnc4nc(Nc5cc(OC[C@H]6CCCN6C)cc(C(F)(F)F)c5)n(C)c4c3Cl)c12` [Example I-242, (R)-7-chloro-1-methyl-6-((4-(methylamino)pyrazolo[1,5-a]pyrazin-3-yl)oxy)-N-(3-((1-methylpyrrolidin-2-yl)methoxy)-5-(trifluoromethyl)phenyl)-1H-imidazo[4,5-b]pyridin-2-amine] the Kd was < 0.01 µM.
`CNc1cn2ncc(Oc3cnc4nc(Nc5cc(CN6CCCC6)cc(C(F)(F)F)c5)n(C)c4c3Cl)c2cn1` [Example I-316, 7-chloro-1-methyl-6-((6-(methylamino)pyrazolo[1,5-a]pyrazin-3-yl)oxy)-N-(3-(pyrrolidin-1-ylmethyl)-5-(trifluoromethyl)phenyl)-1H-imidazo[4,5-b]pyridin-2-amine] was tested, and the Kd was 0.01 to 0.05 µM.
`COCc1n[nH]c2ncc(Oc3cnc4nc(Nc5cc(C(F)(F)F)cn(C)c5=O)n(C)c4c3C#N)cc12` [Example I-319, 6-((3-(methoxymethyl)-1H-pyrazolo[3,4-b]pyridin-5-yl)oxy)-1-methyl-2-((1-methyl-2-oxo-5-(trifluoromethyl)-1,2-dihydropyridin-3-yl)amino)-1H-imidazo[4,5-b]pyridine-7-carbonitrile] was tested, and the Kd was < 0.01 µM.
`CNc1cn2ncc(Oc3cnc4nc(Nc5cc(C6CCN(C)CC6)cc(C(F)(F)F)c5)n(C)c4c3Cl)c2cn1` [Example I-353, 7-chloro-1-methyl-6-((6-(methylamino)pyrazolo[1,5-a]pyrazin-3-yl)oxy)-N-(3-(1-methylpiperidin-4-yl)-5-(trifluoromethyl)phenyl)-1H-imidazo[4,5-b]pyridin-2-amine] was tested, and the Kd was < 0.01 µM.
In the case of `Cn1cc(C(F)(F)F)cc(Nc2nc3ncc(Oc4cnn5cc(OCCN6CCOCC6)ncc45)c(Cl)c3n2C)c1=O` [Example I-376, 3-((7-chloro-1-methyl-6-((6-(2-morpholinoethoxy)pyrazolo[1,5-a]pyrazin-3-yl)oxy)-1H-imidazo[4,5-b]pyridin-2-yl)amino)-1-methyl-5-(trifluoromethyl)pyridin-2(1H)-one], the Kd is reported as < 0.01 µM.
With `COc1c(Oc2cnn3ccncc23)cnc2nc(Nc3cc(C4CC4)cn(C)c3=O)n(C)c12` [Example I-64, 5-cyclopropyl-3-((7-methoxy-1-methyl-6-(pyrazolo[1,5-a]pyrazin-3-yloxy)-1H-imidazo[4,5-b]pyridin-2-yl)amino)-1-methylpyridin-2(1H)-one] the Kd was < 0.01 µM.
With `Cn1c(Nc2cc(C(F)(F)F)cn(CCCN3CCOCC3)c2=O)nc2ncc(Oc3cnn4ccncc34)c(Cl)c21` [Example I-91, 3-((7-chloro-1-methyl-6-(pyrazolo[1,5-a]pyrazin-3-yloxy)-1H-imidazo[4,5-b]pyridin-2-yl)amino)-1-(3-morpholinopropyl)-5-(trifluoromethyl)pyridin-2(1H)-one] the Kd was < 0.01 µM.
In the case of `CNc1nccn2ncc(Oc3cnc4nc(Nc5cc(CN6CCCC6)cc(C(F)(F)F)c5)n(C)c4c3Cl)c12` [Example I-284, 7-chloro-1-methyl-6-((4-(methylamino)pyrazolo[1,5-a]pyrazin-3-yl)oxy)-N-(3-(pyrrolidin-1-ylmethyl)-5-(trifluoromethyl)phenyl)-1H-imidazo[4,5-b]pyridin-2-amine], the Kd is reported as 0.01 to 0.05 µM.
In the case of `Cn1c(Nc2cc(C3CC3)cn(C3CC4(COC4)C3)c2=O)nc2ncc(Oc3cnn4ccncc34)c(Cl)c21` [Example I-85, 3-((7-chloro-1-methyl-6-(pyrazolo[1,5-a]pyrazin-3-yloxy)-1H-imidazo[4,5-b]pyridin-2-yl)amino)-5-cyclopropyl-1-(2-oxaspiro[3.3]heptan-6-yl)pyridin-2(1H)-one], the Kd is reported as < 0.01 µM.
For `Cn1c(Nc2ccc(CN3CCC(O)C3)c(C(F)(F)F)c2)nc2ncc(Oc3cnn4ccncc34)c(Cl)c21` (stereo in doubt) [Example I-185, (S)-1-(4-((7-chloro-1-methyl-6-(pyrazolo[1,5-a]pyrazin-3-yloxy)-1H-imidazo[4,5-b]pyridin-2-yl)amino)-2-(trifluoromethyl)benzyl)pyrrolidin-3-ol], the Kd was < 0.01 µM.
